Earlier results as cited in paper PMC10591878 (ACS infectious diseases, 2023).

Legend:
[1] = system: Dd2-B2 Pf20S WT and mutant lines; settings: β6 N151Y vs Dd2-B2 parental line
[2] = system: P. falciparum Dd2-B2 parasites; settings: for MIR: Dd2-B2; for resistant parasites in 3 wells of 3 × 10^7 / resistant parasites in 4 wells of 2.5 × 10^6: Dd2-B2, 3 × EC50

Structure (SMILES)	EC50 fold shift against selection compound [1]	MIR [2]	resistant parasites in 3 wells of 3 × 10^7 [2]	resistant parasites in 4 wells of 2.5 × 10^6 [2]	number of parasites with which resistance was obtained [2]
O=C(NC1CCCC1)[C@@H]1CCCCOc2cccc(c2)C[C@H](N2CCCC2=O)C(=O)N[C@@H](CCN2CCOCC2)C(=O)N1 [TDI-8304]	1.7×	3×10^7	3/3 wells	0/4 wells	
CC(C)C[C@@H](/C=C/S(C)(=O)=O)NC(=O)[C@H](CC(C)C)NC(=O)[C@H](Cc1c[nH]c2ccccc12)NC(=O)CN1CCOCC1 [WLL]		>1 × 10^9	none	0/4 wells	2 × 10^9 parasites
